The values below are quoted from earlier work in publication PMC13064256, “Integrative preclinical strategy for pharmacokinetic profiling and candidate selection of 3-hydroxypropanamidines: a promising antimalarial class” (Malaria Journal, 2026).

On the set-up of this data set: method as in PMID 31898492.

For `CCCCN(CCCC)CCC(O)c1cc2c(Cl)cc(Cl)cc2c2cc(C(F)(F)F)ccc12` (stereo not shown) [halofantrine], the “Clint in HLMs” value was 26.9 µL/min/mg.
